Source: patent US9833490B1, “Drug combination for the treatment of infertility and its preparation methods and applications” (SICHUAN SHANZE BIOTECH.,LTD., priority 2017, dated 2017)

Target: xanthine oxidase (Homo sapiens, UniProt P47989)
Assay: Xanthine oxidase inhibitory activity
Type: biochemical
Conditions: relative to allopurinol

Sequence of xanthine oxidase (P47989 whole entry, species assumed): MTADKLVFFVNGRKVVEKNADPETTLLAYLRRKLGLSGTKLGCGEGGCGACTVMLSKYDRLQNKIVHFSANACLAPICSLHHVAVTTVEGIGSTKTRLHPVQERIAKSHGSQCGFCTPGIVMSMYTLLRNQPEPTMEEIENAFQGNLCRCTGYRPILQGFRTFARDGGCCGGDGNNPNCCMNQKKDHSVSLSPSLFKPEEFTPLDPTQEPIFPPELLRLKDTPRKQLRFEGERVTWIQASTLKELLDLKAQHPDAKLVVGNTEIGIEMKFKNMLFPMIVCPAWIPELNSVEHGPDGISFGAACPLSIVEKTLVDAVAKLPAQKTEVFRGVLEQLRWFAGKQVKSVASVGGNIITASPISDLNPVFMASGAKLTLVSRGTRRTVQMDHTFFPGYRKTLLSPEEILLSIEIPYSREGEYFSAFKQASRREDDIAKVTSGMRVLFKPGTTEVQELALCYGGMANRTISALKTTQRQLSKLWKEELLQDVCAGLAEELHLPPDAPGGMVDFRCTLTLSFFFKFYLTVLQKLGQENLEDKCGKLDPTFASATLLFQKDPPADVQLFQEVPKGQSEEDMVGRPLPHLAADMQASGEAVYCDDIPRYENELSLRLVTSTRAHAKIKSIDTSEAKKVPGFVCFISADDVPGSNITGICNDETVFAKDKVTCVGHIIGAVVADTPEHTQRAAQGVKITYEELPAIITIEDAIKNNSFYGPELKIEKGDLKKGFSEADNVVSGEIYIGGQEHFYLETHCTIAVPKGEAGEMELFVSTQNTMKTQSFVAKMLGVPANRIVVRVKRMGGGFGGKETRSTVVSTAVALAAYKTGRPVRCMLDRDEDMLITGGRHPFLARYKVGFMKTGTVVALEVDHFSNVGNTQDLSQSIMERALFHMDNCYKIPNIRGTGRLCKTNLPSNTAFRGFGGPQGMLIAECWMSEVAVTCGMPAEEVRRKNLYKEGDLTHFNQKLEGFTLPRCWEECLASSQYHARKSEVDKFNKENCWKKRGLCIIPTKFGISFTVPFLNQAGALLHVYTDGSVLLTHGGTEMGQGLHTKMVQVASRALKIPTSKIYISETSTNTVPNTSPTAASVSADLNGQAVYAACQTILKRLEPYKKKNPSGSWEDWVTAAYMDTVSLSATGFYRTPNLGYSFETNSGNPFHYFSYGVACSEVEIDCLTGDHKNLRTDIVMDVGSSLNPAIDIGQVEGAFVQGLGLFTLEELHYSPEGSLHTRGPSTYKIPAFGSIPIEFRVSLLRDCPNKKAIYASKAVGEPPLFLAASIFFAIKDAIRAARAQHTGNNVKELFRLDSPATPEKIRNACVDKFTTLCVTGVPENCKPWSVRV

| Compound | xanthine oxidase inhibitory activity, fold higher than allopurinol [fold] |
| --- | --- |
| O=C(/C=C/c1ccc(O)c(O)c1)c1ccc(O)c(O)c1O [okanin, 3,4,2′,3′,4′-pentahydroxy trans-chalcone] | 63 |
| O=c1c(O)c(-c2ccc(O)c(O)c2)oc2c(O)c(O)ccc12 [melanoxetin, 3,7,8,3′,4′-pentahydroxyflavone] | 17 |
